These results are taken from paper PMC3004914, “Classification of Drugs Based on Properties of Sodium Channel Inhibition: A Comparative Automated Patch-Clamp Study” (PLoS ONE, 2010).

For series [1] the following is noted: human plasma, cited from earlier work.
The target of series [2] is T1, rNav1.2 sodium channels (HEK-293 cells) (Rattus norvegicus, UniProt P04775). Nature of the series: 5 Hz train protocol, QPatch automated patch-clamp.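 As to UD (use-dependence of the inhibition): UD = (A3/A4)/(A1/A2) as ratios of peak amplitudes from Figure 1A.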 Type of series: cell-based. The settings on record: for potency estimated from few doses: −90 mV; for τon / UD (use-dependence of the inhibition) / τoff / Rev (reversibility) / inhibition at 100 µM: 100 μM; for τoff: 500 s assigned where irreversible; for Rev (reversibility): Rev = A5/A1 after washout. From the text:
The dynamics of the onset and offset of inhibition was monitored using 5 Hz trains of five depolarizing pulses from a holding potential of −90 mV to −10 mV. The trains were repeated every 20 s. Drugs were applied after 10 control trains and 10 trains were delivered in the presence of the drug. The drug was then washed out, and the 10 trains were repeated.
We measured inhibition (Inh; from which we calculated IC50 values as described in Materials and Methods), reversibility of inhibition (Rev) and use-dependence (UD), as well as time constant of onset (τon) and offset (τoff). The calculation of IC50, quantification of Rev and UD, and the determination of time constants are illustrated in Figure 1A. Because τon should be concentration-dependent if we assume a single binding reaction, we excluded it from the analyses. […] Comments on the interpretation of these properties (Rev, […] and UD) are in Results S1.
(§1) A)–D) Peak amplitudes of evoked currents (5 Hz trains of 5 depolarizations from −90 to −10 mV) are plotted against time. Black dots: Control. Grey dots: Drug perfusion. […] Calculation of properties of inhibition is illustrated. […] E) Calculation of Kr and Ki values from steady-state availability curves.
(§2) HEK-293 cells stably expressing rNav1.2 sodium channels were obtained from NeuroSearch (Ballerup, Denmark).
(§3) Cells were automatically prepared for application to the chips (centrifuged and washed twice, then resuspended in extracellular solution) as described previously. Composition of the extracellular solution was: (in mM): 140 NaCl, 3 KCl, 1 CaCl2, 1 MgCl2, 0.1 CdCl2, 20 TEA-Cl, 5 HEPES, adjusted to pH 7.3, Osmolality: ∼320 mOsm.
(§4) All electrophysiological experiments were conducted on Qpatch-16 or QPatch HT instruments using QPlate™ chips. For a detailed description of the instrument and the patch-clamp chips see [37], [38]. Data were sampled at a frequency of 25 kHz and filtered at 5 kHz. […] The amplifier was controlled and the data were collected by the Sophion QPatch client software. For initial data analysis the QPatch software was used. Built-in amplifiers provide an improved method for series resistance compensation. Leak subtraction (based on a standard P/n protocol) was used to subtract the capacitive component of currents.
From this protocol we extracted five parameters, as illustrated in Figure 1A. We calculated inhibition of a single “cc” concentration: Inh = (amplitudectr – amplitudedrug)/amplitudectr.

Series [3] deals with T1, rNav1.2 sodium channels (HEK-293 cells). Put plainly: steady-state inactivation protocol (availability curves), QPatch automated patch-clamp. The note with it: 100 µM; for inhibition at 100 µM: HEK293, read-out: Inh (inhibited fraction) at holding potential −150 mV. Type of series: cell-based.
From the text: as §1
Standard steady-state inactivation protocols were used to measure the shift of steady-state availability curve caused by the drugs. Currents were evoked by a 10 ms test pulse to −10 mV, preceded by 400 ms pre-pulses from −150 to −30 mV. […] Because the inhibition at hyperpolarized potentials (Inh−150), and the shift of the availability curves (ΔV1/2) are both concentration-dependent properties, we calculated affinities to hyperpolarized and depolarized states (“resting state affinity”: Kr, and “inactivated state affinity”: Ki), which, on the other hand, are concentration-independent characteristics of individual drugs. Calculation of Kr and Ki values are described in Materials and Methods, and illustrated in Figure 1E. State-dependence (SD) was quantified as the ratio Kr/Ki.
as §2, §3, §4
Inactivated affinity (Ki) values were calculated assuming a simple four-state model of drug binding and channel gating, using two separate methods: (1) from the shift of the availability curve (ΔV1/2), the slope of the Boltzmann fit of the availability curve (k) and Kr, using the formula described by Bean, Cohen and Tsien (Ki−ΔV1/2; see Figure 1E), or (2) from the apparent affinity (Kapp) at a certain pre-pulse potential, which was calculated from the inhibition (e.g. Inh−60) as described above, and the availability (h) at the same pre-pulse potential, using the formula from Kuo and Bean (Figure 1E). […] (Arithmetic means and SEM values are given in Results S7.)
(In general: Patch clamp records ionic current or voltage across a cell membrane.)

[4] abbreviates: HEK293, 300 μM, −90 mV holding potential, 5 Hz train, read-out: Inh (inhibited fraction).
Where [5] appears, read: HEK293, calculated from Inh at single concentration 300 μM, 5 Hz train, read-out: IC50.
Where [6] appears, read: HEK293, calculated from Inh at single concentration 100 μM, 5 Hz train, read-out: IC50.
Where [7] appears, read: arithmetic mean, read-out: Ki-Kapp arith.
The mark [8] stands for this setting: arithmetic mean, read-out: Ki-ΔV1/2 arith.
[9] abbreviates: arithmetic mean, read-out: Kr arith.
Where [10] appears, read: geometric mean, from Inh at −150 mV, read-out: Kr (resting state affinity).
The mark [11] stands for this setting: geometric mean, from apparent affinity, read-out: Ki−Kapp (inactivated state affinity).
The mark [12] stands for this setting: geometric mean, from shift of availability curve, read-out: Ki−ΔV1/2 (inactivated state affinity).
[13] abbreviates: HEK293, −90 mV holding potential, 5 Hz train, read-out: Inh (inhibited fraction).

Each structure is given as a SMILES string. Where two headings read alike, the source gives them in different places.

T1 sequence (P04775 whole entry): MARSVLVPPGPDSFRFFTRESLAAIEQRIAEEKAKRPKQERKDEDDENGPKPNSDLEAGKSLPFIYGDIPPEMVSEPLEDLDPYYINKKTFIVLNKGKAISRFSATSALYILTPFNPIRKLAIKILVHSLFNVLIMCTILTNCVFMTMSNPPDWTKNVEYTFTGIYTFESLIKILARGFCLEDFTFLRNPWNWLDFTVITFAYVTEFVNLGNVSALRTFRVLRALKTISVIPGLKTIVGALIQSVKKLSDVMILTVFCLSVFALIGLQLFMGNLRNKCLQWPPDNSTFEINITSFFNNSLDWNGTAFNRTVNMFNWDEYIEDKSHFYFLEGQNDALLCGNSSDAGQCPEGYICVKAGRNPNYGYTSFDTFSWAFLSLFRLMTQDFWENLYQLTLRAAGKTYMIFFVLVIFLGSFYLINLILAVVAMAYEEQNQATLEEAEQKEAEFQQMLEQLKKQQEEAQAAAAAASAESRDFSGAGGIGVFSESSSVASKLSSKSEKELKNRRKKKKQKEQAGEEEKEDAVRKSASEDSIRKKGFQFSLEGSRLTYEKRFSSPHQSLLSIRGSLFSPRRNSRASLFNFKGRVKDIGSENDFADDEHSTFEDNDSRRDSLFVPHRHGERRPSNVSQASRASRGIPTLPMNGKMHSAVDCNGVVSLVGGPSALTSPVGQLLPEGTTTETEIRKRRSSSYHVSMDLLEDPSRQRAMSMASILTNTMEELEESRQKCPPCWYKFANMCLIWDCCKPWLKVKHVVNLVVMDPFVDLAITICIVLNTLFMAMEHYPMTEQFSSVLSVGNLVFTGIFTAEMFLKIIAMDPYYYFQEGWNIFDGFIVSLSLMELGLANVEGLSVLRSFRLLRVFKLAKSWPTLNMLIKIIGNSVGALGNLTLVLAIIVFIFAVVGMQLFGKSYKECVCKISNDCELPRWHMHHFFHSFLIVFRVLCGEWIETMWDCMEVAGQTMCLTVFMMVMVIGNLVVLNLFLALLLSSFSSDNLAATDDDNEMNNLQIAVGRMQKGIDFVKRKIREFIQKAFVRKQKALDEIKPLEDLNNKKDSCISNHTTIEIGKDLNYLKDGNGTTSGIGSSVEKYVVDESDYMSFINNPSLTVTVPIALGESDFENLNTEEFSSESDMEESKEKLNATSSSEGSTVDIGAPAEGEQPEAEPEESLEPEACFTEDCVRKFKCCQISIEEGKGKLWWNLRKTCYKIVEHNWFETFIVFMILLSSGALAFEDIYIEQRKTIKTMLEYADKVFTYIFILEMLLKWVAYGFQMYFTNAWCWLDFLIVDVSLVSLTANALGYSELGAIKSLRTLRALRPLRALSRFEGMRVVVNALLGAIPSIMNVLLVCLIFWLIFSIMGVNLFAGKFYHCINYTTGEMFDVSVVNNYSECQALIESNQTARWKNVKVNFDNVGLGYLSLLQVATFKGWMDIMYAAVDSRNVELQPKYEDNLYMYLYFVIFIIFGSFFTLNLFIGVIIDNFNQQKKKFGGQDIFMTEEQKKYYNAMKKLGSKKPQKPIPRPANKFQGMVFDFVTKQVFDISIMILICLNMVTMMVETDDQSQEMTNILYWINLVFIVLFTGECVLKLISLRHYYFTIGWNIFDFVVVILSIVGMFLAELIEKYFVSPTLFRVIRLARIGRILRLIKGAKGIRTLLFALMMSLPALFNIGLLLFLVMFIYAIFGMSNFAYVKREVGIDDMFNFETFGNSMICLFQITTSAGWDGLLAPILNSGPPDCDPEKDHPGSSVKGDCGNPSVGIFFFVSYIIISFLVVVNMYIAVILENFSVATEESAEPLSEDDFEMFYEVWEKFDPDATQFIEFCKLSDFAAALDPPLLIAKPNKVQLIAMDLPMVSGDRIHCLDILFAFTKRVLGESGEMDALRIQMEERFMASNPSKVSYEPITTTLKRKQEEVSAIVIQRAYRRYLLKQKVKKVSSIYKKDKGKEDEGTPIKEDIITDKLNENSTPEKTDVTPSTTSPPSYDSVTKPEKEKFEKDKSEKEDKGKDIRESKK

Regarding `CC1(C)O[C@@H]2[C@@H](CO[C@@]3(COS(N)(=O)=O)OC(C)(C)O[C@@H]23)O1` [TOP, Topiramate], the plasma conc. was 5.5 [44] µg/ml in series [1] (as printed in each cell) and 16.21 µM in series [1] (as printed in the µg/ml cell). Besides, the inhibition at 300 µM in series [2] (setting [4]) amounted to 7%. Also, in series [2] (setting [5]), the potency estimated from few doses was 3.99 mM.
For `CN1CCN(C2=Nc3cc(Cl)ccc3Nc3ccccc32)CC1` [CLZ, Clozapine], the plasma conc. was 0.55 [44] µg/ml in series [1] (as printed in each cell) and 1.671 µM in series [1] (as printed in the µg/ml cell).
`O=C(O)Cc1ccccc1Nc1c(Cl)cccc1Cl` [DIC, Diclofenac]: the values for the plasma conc. in series [1] (as printed in each cell) and in series [1] (as printed in the µg/ml cell) were 2 [44] µg/ml and 6.287 µM, respectively. Also, the τon in series [2] amounted to 7.19 s. Further, the “UD (use-dependence of the inhibition)” value in series [2] (5 Hz train) is given as 1.01. In series [2], this compound came in with a τoff of 26.43 s. Also, in series [2], the “Rev (reversibility)” value is 0.95. For the same compound, the potency estimated from few doses in series [2] (setting [6]) is 0.561 mM. Further, the inhibition at 100 µM in series [3] is 3%. The Ki in series [3] (setting [7]) was determined as 98.4 µM; in series [3] (setting [8]), 102 µM; in series [3] (setting [11]), 87.8 µM; in series [3] (setting [12]), 81 µM. Also, the Kd in series [3] (setting [9]) was 3300 µM; in series [3] (setting [10]) it was 3120 µM.
Take `O=C(CCCN1CCC(O)(c2ccc(Cl)cc2)CC1)c1ccc(F)cc1` [HAL, Haloperidol]: the plasma conc. in series [1] (as printed in each cell) was 0.02 [44] µg/ml; in series [1] (as printed in the µg/ml cell) it was 0.053 µM.
For the compound `CCN(CC)CCNC(=O)c1cc(S(C)(=O)=O)ccc1OC` [TIA, Tiapride], the plasma conc. was 0.56 [51] µg/ml in series [1] (as printed in each cell) and 1.535 µM in series [1] (as printed in the µg/ml cell). Also, the inhibition at 300 µM in series [2] (setting [4]) came to 7%. In addition, the potency estimated from few doses in series [2] (setting [5]) is 3.99 mM.
Turning to `CC(NC(C)(C)C)C(=O)c1cccc(Cl)c1` (centres unmarked) [BPR, Bupropion], the τon in series [2] came out at 4.6 s. Also, in series [2] (5 Hz train), the “UD (use-dependence of the inhibition)” value is reported as 1.04. The same compound had a τoff in series [2] of 12.45 s. Also, the “Rev (reversibility)” value in series [2] is given as 0.92. In addition, the inhibition at 100 µM is 15% in series [2] (setting [13]) and 16% in series [3]. Moreover, the potency estimated from few doses in series [2] (setting [6]) is 0.565 mM. Besides, the Ki in series [3] (setting [7]) came to 27.4 µM; in series [3] (setting [8]), 29.1 µM; in series [3] (setting [11]), 25.5 µM; in series [3] (setting [12]) it was 26 µM. Also, the Kd in series [3] (setting [9]) amounted to 733 µM; in series [3] (setting [10]), 604 µM.
Take `Fc1ccc(C(c2ccc(F)cc2)N2CCN(C/C=C/c3ccccc3)CC2)cc1` [FLR, Flunarizine]: the plasma conc. in series [1] (as printed in each cell) is 0.06 [58] µg/ml; in series [1] (as printed in the µg/ml cell), 0.113 µM.
`C#CCN(C)[C@H](C)Cc1ccccc1` [DPR, R-(-)-Deprenyl]: the “IC50 compared to plasma concentration” value in series [2] was “exceedingly high”. Further, the “Inh (inhibited fraction)” value in series [2] (300 μM, −90 mV holding potential, 5 Hz train) was 0.22.
As to `CN1CCN2c3ccccc3Cc3ccccc3C2C1` (centres unmarked) [MIA, Mianserin], the values for the plasma conc. in series [1] (as printed in each cell) and in series [1] (as printed in the µg/ml cell) were 0.01 [47] µg/ml and 0.037 µM, respectively.
Turning to `CNCCCC12CCC(c3ccccc31)c1ccccc12` [MPR, Maprotiline], the plasma conc. in series [1] (as printed in each cell) was 0.25 [45] µg/ml; in series [1] (as printed in the µg/ml cell), 0.797 µM.
As for `CCN(CC)CCNC(=O)c1ccc(N)cc1` [PRC, Procainamide], in series [2] (setting [4]), the inhibition at 300 µM is 14%. For the same compound, in series [2] (setting [5]), the potency estimated from few doses was 2.01 mM.
On to `NS(=O)(=O)Cc1noc2ccccc12` [ZON, Zonisamide], for which the plasma conc. in series [1] (as printed in each cell) was 28.4 [44] µg/ml; in series [1] (as printed in the µg/ml cell), 133.82 µM. Also, the inhibition at 300 µM in series [2] (setting [4]) turned out to be 9%. Further, in series [2] (setting [5]), the potency estimated from few doses was 3.03 mM.
On to `O=c1n(CCCN2CCN(c3cccc(Cl)c3)CC2)nc2ccccn12` [TRZ, Trazodone], for which the plasma conc. in series [1] (as printed in each cell) is 1.5 [44] µg/ml; in series [1] (as printed in the µg/ml cell), 3.673 µM.
Consider `O=C(NCCN1CCOCC1)c1ccc(Cl)cc1` [MCL, Moclobemide], for which, in series [1] (as printed in each cell), the plasma conc. was 0.29 [49] µg/ml. Further, the inhibition at 100 µM in series [2] (setting [13]) amounted to 9%. Moreover, the potency estimated from few doses in series [2] (setting [6]) is 1.01 mM.
With `CNCCC(Oc1ccc(C(F)(F)F)cc1)c1ccccc1` (centres unmarked) [FLX, Fluoxetine], the plasma conc. in series [1] (as printed in each cell) was 0.38 [44] µg/ml; in series [1] (as printed in the µg/ml cell), 1.099 µM.
On to `O=C(CCNNC(=O)c1ccncc1)NCc1ccccc1` [NIA, Nialamide], for which the inhibition at 100 µM in series [2] (setting [13]) turned out to be 3%. In addition, the potency estimated from few doses in series [2] (setting [6]) was 3.23 mM.
With `CN1CCN2c3ncccc3Cc3ccccc3C2C1` (centres unmarked) [MRZ, Mirtazapine], the τon in series [2] was 3.99 s. Besides, the “UD (use-dependence of the inhibition)” value in series [2] (5 Hz train) was 1.14. The compound further showed a τoff in series [2] of 7.47 s. The “Rev (reversibility)” value in series [2] is given as 0.89. Also, the inhibition at 100 µM turned out to be 43% in series [2] (setting [13]) and 24% in series [3]. Moreover, the potency estimated from few doses in series [2] (setting [6]) is 0.132 mM. In addition, the Ki in series [3] (setting [7]) stood at 7.94 µM; in series [3] (setting [8]), 5.65 µM; in series [3] (setting [11]) it was 7.62 µM; in series [3] (setting [12]) it was 5.63 µM. Besides, the Kd in series [3] (setting [9]) and in series [3] (setting [10]) was 317 µM each time.
As for `NCC1(CC(=O)O)CCCCC1` [GAB, Gabapentin], the plasma conc. in series [1] (as printed in each cell) was 4 [44] µg/ml; in series [1] (as printed in the µg/ml cell), 23.359 µM. Also, in series [2] (HEK293, read-out: IC50, calculated from Inh at single concentration 300 μM, 5 Hz train), the potency estimated from few doses is 14.7 mM. In series [2] (HEK293, read-out: Inh (inhibited fraction)), the inhibition at 300 µM amounted to 3%.
Take `CNC1(C)C2CCC(C2)C1(C)C` (centres unmarked) [MEC, Mecamylamine]: the plasma conc. is 0.02 [60] µg/ml in series [1] (as printed in each cell) and 0.118 µM in series [1] (as printed in the µg/ml cell). Also, in series [2], the “IC50 compared to plasma concentration” value is “exceedingly high”. Moreover, in series [2] (setting [13]), the inhibition at 100 µM came to 5%. Further, the potency estimated from few doses in series [2] (setting [6]) is 2.76 mM.
Take `CN[C@H]1CC[C@@H](c2ccc(Cl)c(Cl)c2)c2ccccc21` [SRT, Sertraline]: the results for the plasma conc. in series [1] (as printed in each cell) and in series [1] (as printed in the µg/ml cell) were 0.14 [44] µg/ml and 0.409 µM, respectively.
